Molecular target: T1, AlaRS R326W binding to Nrp1 (Homo sapiens, UniProt P49588, R326W)
T1 construct: expressed in transfected cells
T1 sequence (P49588 1-968 R326W): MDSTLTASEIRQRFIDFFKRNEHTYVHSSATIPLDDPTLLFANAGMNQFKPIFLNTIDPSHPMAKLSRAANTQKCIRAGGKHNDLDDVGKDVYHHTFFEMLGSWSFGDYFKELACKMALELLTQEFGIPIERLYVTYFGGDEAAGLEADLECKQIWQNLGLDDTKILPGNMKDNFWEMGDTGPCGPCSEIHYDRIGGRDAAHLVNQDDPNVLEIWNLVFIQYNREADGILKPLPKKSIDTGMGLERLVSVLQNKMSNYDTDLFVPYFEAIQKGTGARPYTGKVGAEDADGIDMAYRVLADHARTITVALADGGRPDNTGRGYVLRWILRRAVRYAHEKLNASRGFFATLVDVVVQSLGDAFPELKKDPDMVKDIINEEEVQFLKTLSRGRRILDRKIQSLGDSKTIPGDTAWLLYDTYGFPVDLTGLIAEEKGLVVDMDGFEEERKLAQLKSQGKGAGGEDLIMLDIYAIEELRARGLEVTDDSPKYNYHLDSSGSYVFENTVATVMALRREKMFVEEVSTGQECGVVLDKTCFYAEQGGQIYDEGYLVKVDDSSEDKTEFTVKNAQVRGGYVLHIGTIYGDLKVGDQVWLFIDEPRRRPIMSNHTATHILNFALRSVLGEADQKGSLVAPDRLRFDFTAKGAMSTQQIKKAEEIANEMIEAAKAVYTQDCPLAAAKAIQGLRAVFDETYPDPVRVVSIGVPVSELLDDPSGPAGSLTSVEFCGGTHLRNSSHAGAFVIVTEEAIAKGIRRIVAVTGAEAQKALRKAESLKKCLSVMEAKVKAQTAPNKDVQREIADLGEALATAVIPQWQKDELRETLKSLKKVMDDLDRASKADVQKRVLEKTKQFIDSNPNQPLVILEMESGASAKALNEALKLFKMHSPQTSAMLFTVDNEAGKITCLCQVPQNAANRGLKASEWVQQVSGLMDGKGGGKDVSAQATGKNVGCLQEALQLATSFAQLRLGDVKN
Assay: Co-IP of HA-AlaRS mutant with Nrp1 in transfected cells
Format: cell-based
Settings: 20 µM Tanshinone I for 24 h, ImageJ, average of three repeats
Description: To further investigate whether Tanshinone I-induced conformational changes in AlaRS CMT mutants affect their interaction with Nrp1, Co-IP experiments were performed in cells treated with Tanshinone I. By comparing Co-IP results obtained before and after treatment, we assessed the influence of the drug on the binding strength and mode between the AlaRS CMT mutants and Nrp1. […] To confirm the direct effect of Tanshinone I on the interaction between AlaRS CMT mutants and Nrp1, pull-down experiments were performed. […] Given that the interaction between AlaRS mutants and Nrp1 is associated with disease progression in CMT, the ability of Tanshinone I to disrupt this binding highlights its potential to intervene in the pathogenic mechanisms of these diseases.
Figure 7 The impact of Tanshinone I on the interaction between AlaRS mutants and Nrp1. (A) Co-IP assays were conducted to assess the binding between HA-AlaRS mutants and Nrp1, both with and without treatment with 20 µM Tanshinone I for 24 h. […] (C) Pull down assay was performed to detect the binding between AlaRS mutants and GST-Nrp1 b1 with or without 20 µM Tanshinone I. (D) Relative quantification statistics of the AlaRS mutants pulled down from the GST pull down experiments after Tanshinone I treatment were performed using ImageJ. (E) The cell viability of 293T and NSC34 cells treated with different concentrations of Tanshinone I was assessed using the CCK-8 assay over a 24 h period. TEXT PRINTED IN THE PICTURE: (B) Tanshinone I: Mean density band (N71Y): 0.60; Mean density band (G102R): 0.53; Mean density band (R326W): 0.50; Mean density band (R329H): 0.50; Mean density band (E337K): 0.62 | (D) Tanshinone I: Mean density band (N71Y): 0.82; Mean density band (G102R): 0.76; Mean density band (R326W): 0.84; Mean density band (R329H): 0.84; Mean density band (E337K): 0.90
Total protein was extracted from cells using RIPA buffer (50 mM Tris-HCl pH 7.4, 150 mM NaCl, 1% NP40, 1 mM EDTA) supplemented with a protease and phosphatase inhibitor cocktail (Roche, Basel, Switzerland). After SDS-PAGE, the protein on the gel was transferred to a PVDF membrane (Bio-Rad, Hercules, CA, USA) and then blocked with 5% non-fat dry milk in TBST for 1 h. Then, the membranes were incubated with the indicated primary antibodies and corresponding HRP-conjugated secondary antibodies. Signals were detected using the Bio-Rad ChemiDoc system (Bio-Rad, Shanghai, China). The following antibodies were used: Flag (Ray antibody biotech, Beijing, China, 1:3000), HA (Ray antibody biotech, Beijing, China, 1:3000), and GAPDH (Ray antibody biotech, Beijing, China, 1:5000).
To detect the binding of Nrp1 and AlaRS mutants in cells, whole-cell lysates (500 μg) were treated overnight with 2 μg of anti-Flag antibody in RIPA buffer. Next, Protein A/G agarose beads (#sc-2003, Santa Cruz Biotechnology, Santa Cruz, CA, USA) were applied to the lysates and the samples were further treated for 8–12 h with rotation. Samples were washed three times with RIPA buffer. Subsequently, the immunoprecipitations were resuspended into 2 × SDS-loading buffer. The samples were then boiled for 10 min and detected using Western blot. The experiment was repeated three times.

For `Cc1coc2c1C(=O)C(=O)c1c-2ccc2c(C)cccc12` [Tanshinone I], the “Mean density band (R326W), relative quantification of AlaRS mutant immunoprecipitated” value was 0.50.
